Results on 18 compounds are retold here after patent US10213433B2 (AbbVie Inc., priority 2010, dated 2019).

Molecules are shown by their SMILES. Where only a bound is given, the exact number is not on record here.

Sequence of Bcl-2 protein (P10415 whole entry): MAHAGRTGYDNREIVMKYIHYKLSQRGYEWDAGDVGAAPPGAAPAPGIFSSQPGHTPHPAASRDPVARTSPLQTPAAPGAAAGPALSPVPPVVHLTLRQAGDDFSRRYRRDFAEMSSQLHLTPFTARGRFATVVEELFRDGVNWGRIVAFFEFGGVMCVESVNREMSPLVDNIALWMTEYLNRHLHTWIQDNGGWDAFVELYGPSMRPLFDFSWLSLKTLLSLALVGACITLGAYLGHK

This assay deals with Bcl-2 protein (Homo sapiens (Human), UniProt P10415). Nature of the assay: Bcl-2 binding TR-FRET (Time-Resolved Fluorescence-Resonance-Energy-Transfer) assay. The following applies: inhibition constant for binding to Bcl-2 protein. The source says:
The smaller the Ki value, the greater is the binding affinity.
Background: TR-FRET usually uses a lanthanide donor and a delayed reading to cut background.
As for `COCC1(C)CCC(c2ccc(Cl)cc2)=C(CN2CCN(c3ccc(C(=O)NS(=O)(=O)c4ccc(NCC5CCOCC5)c([N+](=O)[O-])c4)c(Oc4cnc5[nH]ccc5c4)c3)CC2)C1` (stereo not drawn) [Compound 360, 4-(4-{[2-(4-chlorophenyl)-5-(methoxymethyl)-5-methylcyclohex-1-en-1-yl]methyl}piperazin-1-yl)-N-({3-nitro-4-[(tetrahydro-2H-pyran-4-ylmethyl)amino]phenyl}sulfonyl)-2-(1H-pyrrolo[2,3-b]pyridin-5-yloxy)benzamide], the Ki is below 0.01 nM. As for `CC1(C)CCC(CN2CCN(c3ccc(C(=O)NS(=O)(=O)c4ccc(NCC5CN(C(CF)CF)C5)c([N+](=O)[O-])c4)c(Oc4cnc5[nH]ccc5c4)c3)CC2)=C(c2ccc(Cl)cc2)C1` [Compound 161, 4-(4-{[2-(4-chlorophenyl)-4,4-dimethylcyclohex-1-en-1-yl]methyl}piperazin-1-yl)-N-({4-[({1-[2-fluoro-1-(fluoromethyl)ethyl]azetidin-3-yl}methyl)amino]-3-nitrophenyl}sulfonyl)-2-(1H-pyrrolo[2,3-b]pyridin-5-yloxy)benzamide], the figure is below 0.01 nM; as for `CC1(C)CCC(CN2CCN(c3ccc(C(=O)NS(=O)(=O)c4ccc(NCc5ccc(OCCN6CCOCC6)cc5)c([N+](=O)[O-])c4)c(Oc4cnc5[nH]ccc5c4)c3)CC2)=C(c2ccc(Cl)cc2)C1` [Compound 198, 4-(4-{[2-(4-chlorophenyl)-4,4-dimethylcyclohex-1-en-1-yl]methyl}piperazin-1-yl)-N-[(4-{[4-(2-morpholin-4-ylethoxy)benzyl]amino}-3-nitrophenyl)sulfonyl]-2-(1H-pyrrolo[2,3-b]pyridin-5-yloxy)benzamide], below 0.01 nM. For `CC1(C)CC(c2ccc(Cl)cc2)=C(CN2CCN(c3ccc(C(=O)NS(=O)(=O)c4ccc(NCC5CCOCC5)c([N+](=O)[O-])c4)c(Oc4cnc5[nH]ccc5c4)c3)CC2)CO1` [Compound 15, 4-(4-{[4-(4-chlorophenyl)-6,6-dimethyl-5,6-dihydro-2H-pyran-3-yl]methyl}piperazin-1-yl)-N-({3-nitro-4-[(tetrahydro-2H-pyran-4-ylmethyl)amino]phenyl}sulfonyl)-2-(1H-pyrrolo[2,3-b]pyridin-5-yloxy)benzamide] the value was below 0.01 nM. As for `CC1(C)CCC(CN2CCN(c3ccc(C(=O)NS(=O)(=O)c4cnc(NC[C@H]5CC[C@](C)(O)CC5)c([N+](=O)[O-])c4)c(Oc4cnc5[nH]ccc5c4)c3)CC2)=C(c2ccc(Cl)cc2)C1` [Compound 376, 4-(4-{[2-(4-chlorophenyl)-4,4-dimethylcyclohex-1-en-1-yl]methyl}piperazin-1-yl)-N-[(6-{[(cis-4-hydroxy-4-methylcyclohexyl)methyl]amino}-5-nitropyridin-3-yl)sulfonyl]-2-(1H-pyrrolo[2,3-b]pyridin-5-yloxy)benzamide], the figure is below 0.001 nM. In turn, `CC1(C)CC(c2ccc(Cl)cc2)=C(CN2CCN(c3ccc(C(=O)NS(=O)(=O)c4ccc(NCC5COCCO5)c([N+](=O)[O-])c4)c(Oc4cnc5[nH]ccc5c4)c3)CC2)CO1` (stereo not drawn) [Compound 31, 4-(4-{[4-(4-chlorophenyl)-6,6-dimethyl-5,6-dihydro-2H-pyran-3-yl]methyl}piperazin-1-yl)-N-({4-[(1,4-dioxan-2-ylmethyl)amino]-3-nitrophenyl}sulfonyl)-2-(1H-pyrrolo[2,3-b]pyridin-5-yloxy)benzamide] showed a Ki below 0.01 nM. For `CC1(C)CCCC(CN2CCN(c3ccc(C(=O)NS(=O)(=O)c4ccc(NCC5CCOCC5)c([N+](=O)[O-])c4)c(Oc4cnc5[nH]ccc5c4)c3)CC2)=C1c1ccc(Cl)cc1` [Compound 150, 4-(4-{[2-(4-chlorophenyl)-3,3-dimethylcyclohex-1-en-1-yl]methyl}piperazin-1-yl)-N-({3-nitro-4-[(tetrahydro-2H-pyran-4-ylmethyl)amino]phenyl}sulfonyl)-2-(1H-pyrrolo[2,3-b]pyridin-5-yloxy)benzamide], the Ki was below 0.01 nM.

The compound `CC1(C)CCC(CN2CCN(c3ccc(C(=O)NS(=O)(=O)c4ccc(OCCOC5CCOC5)c([N+](=O)[O-])c4)c(Oc4cnc5[nH]ccc5c4)c3)CC2)=C(c2ccc(Cl)cc2)C1` (stereo not drawn) [Compound 275, 4-(4-{[2-(4-chlorophenyl)-4,4-dimethylcyclohex-1-en-1-yl]methyl}piperazin-1-yl)-N-({3-nitro-4-[2-(tetrahydrofuran-3-yloxy)ethoxy]phenyl}sulfonyl)-2-(1H-pyrrolo[2,3-b]pyridin-5-yloxy)benzamide] came in with an inhibition constant Ki below 0.01 nM.

The compound `CC1(C)CCC(CN2CCN(c3ccc(C(=O)NS(=O)(=O)c4ccc(NCC5CN(C6COC6)C5)c([N+](=O)[O-])c4)c(Oc4cnc5[nH]ccc5c4)c3)CC2)=C(c2ccc(Cl)cc2)C1` [Compound 162, 4-(4-{[2-(4-chlorophenyl)-4,4-dimethylcyclohex-1-en-1-yl]methyl}piperazin-1-yl)-N-[(3-nitro-4-{[(1-oxetan-3-ylazetidin-3-yl)methyl]amino}phenyl)sulfonyl]-2-(1H-pyrrolo[2,3-b]pyridin-5-yloxy)benzamide] showed an inhibitory constant (Ki) below 0.01 nM. As for `CN1CCC(Nc2ccc(S(=O)(=O)NC(=O)c3ccc(N4CCN(CC5=C(c6ccc(Cl)cc6)CC(C)(C)CC5)CC4)cc3Oc3cnc4[nH]ccc4c3)cc2[N+](=O)[O-])CC1` [Compound 4, 4-(4-{[2-(4-chlorophenyl)-4,4-dimethylcyclohex-1-en-1-yl]methyl}piperazin-1-yl)-N-({4-[(1-methylpiperidin-4-yl)amino]-3-nitrophenyl}sulfonyl)-2-(1H-pyrrolo[2,3-b]pyridin-5-yloxy)benzamide], the figure is below 0.01 nM; as for `CC1(C)CCC(CN2CCN(c3ccc(C(=O)NS(=O)(=O)c4ccc(OCC5CCOC(C)(C)C5)c([N+](=O)[O-])c4)c(Oc4cnc5[nH]ccc5c4)c3)CC2)=C(c2ccc(Cl)cc2)C1` (stereo not drawn) [Compound 51, 4-(4-{[2-(4-chlorophenyl)-4,4-dimethylcyclohex-1-en-1-yl]methyl}piperazin-1-yl)-N-({4-[(2,2-dimethyltetrahydro-2H-pyran-4-yl)methoxy]-3-nitrophenyl}sulfonyl)-2-(1H-pyrrolo[2,3-b]pyridin-5-yloxy)benzamide], below 0.01 nM; as for `CC1(C)CCC(CN2CCN(c3ccc(C(=O)NS(=O)(=O)c4ccc(NC5CCN(S(C)(=O)=O)CC5)c([N+](=O)[O-])c4)c(Oc4cnc5[nH]ccc5c4)c3)CC2)=C(c2ccc(Cl)cc2)C1` [Compound 80, 4-(4-{[2-(4-chlorophenyl)-4,4-dimethylcyclohex-1-en-1-yl]methyl}piperazin-1-yl)-N-[(4-{[1-(methylsulfonyl)piperidin-4-yl]amino}-3-nitrophenyl)sulfonyl]-2-(1H-pyrrolo[2,3-b]pyridin-5-yloxy)benzamide], below 0.01 nM.

`CC1(C)CCC(CN2CCN(c3ccc(C(=O)NS(=O)(=O)c4ccc(NC[C@H]5CCCOC5)c([N+](=O)[O-])c4)c(Oc4cnc5[nH]ccc5c4)c3)CC2)=C(c2ccc(Cl)cc2)C1` [Compound 13, 4-(4-{[2-(4-chlorophenyl)-4,4-dimethylcyclohex-1-en-1-yl]methyl}piperazin-1-yl)-N-[(3-nitro-4-{[(3R)-tetrahydro-2H-pyran-3-ylmethyl]amino}phenyl)sulfonyl]-2-(1H-pyrrolo[2,3-b]pyridin-5-yloxy)benzamide] had a Ki below 0.01 nM. As for `CN1CCC(COc2ccc(S(=O)(=O)NC(=O)c3ccc(N4CCN(CC5=C(c6ccc(Cl)cc6)CC(C)(C)CC5)CC4)cc3Oc3cnc4[nH]ccc4c3)cc2[N+](=O)[O-])CC1` [Compound 48, 4-(4-{[2-(4-chlorophenyl)-4,4-dimethylcyclohex-1-en-1-yl]methyl}piperazin-1-yl)-N-({4-[(1-methylpiperidin-4-yl)methoxy]-3-nitrophenyl}sulfonyl)-2-(1H-pyrrolo[2,3-b]pyridin-5-yloxy)benzamide], the figure is below 0.01 nM. For `CC(=O)N1CCC(Nc2ccc(S(=O)(=O)NC(=O)c3ccc(N4CCN(CC5=C(c6ccc(Cl)cc6)CC(C)(C)CC5)CC4)cc3Oc3cnc4[nH]ccc4c3)cc2[N+](=O)[O-])CC1` [Compound 53, N-({4-[(1-acetylpiperidin-4-yl)amino]-3-nitrophenyl}sulfonyl)-4-(4-{[2-(4-chlorophenyl)-4,4-dimethylcyclohex-1-en-1-yl]methyl}piperazin-1-yl)-2-(1H-pyrrolo[2,3-b]pyridin-5-yloxy)benzamide] the value was below 0.01 nM; for `CC1(C)CCC(CN2CCN(c3ccc(C(=O)NS(=O)(=O)c4cnc(NC[C@H]5CC[C@@](C)(O)CC5)c([N+](=O)[O-])c4)c(Oc4cnc5[nH]ccc5c4)c3)CC2)=C(c2ccc(Cl)cc2)C1` [Compound 371, 4-(4-{[2-(4-chlorophenyl)-4,4-dimethylcyclohex-1-en-1-yl]methyl}piperazin-1-yl)-N-[(6-{[(trans-4-hydroxy-4-methylcyclohexyl)methyl]amino}-5-nitropyridin-3-yl)sulfonyl]-2-(1H-pyrrolo[2,3-b]pyridin-5-yloxy)benzamide], below 0.001 nM; for `CN(C)CC(=O)N1CCO[C@H](CNc2ccc(S(=O)(=O)NC(=O)c3ccc(N4CCN(CC5=C(c6ccc(Cl)cc6)CC(C)(C)CC5)CC4)cc3Oc3cnc4[nH]ccc4c3)cc2[N+](=O)[O-])C1` [Compound 258, 4-(4-{[2-(4-chlorophenyl)-4,4-dimethylcyclohex-1-en-1-yl]methyl}piperazin-1-yl)-N-{[4-({[(2R)-4-(N,N-dimethylglycyl)morpholin-2-yl]methyl}amino)-3-nitrophenyl]sulfonyl}-2-(1H-pyrrolo[2,3-b]pyridin-5-yloxy)benzamide], below 0.01 nM. `COC1(C)CCC(c2ccc(Cl)cc2)=C(CN2CCN(c3ccc(C(=O)NS(=O)(=O)c4ccc(NC[C@H]5CC[C@@](C)(O)CC5)c([N+](=O)[O-])c4)c(Oc4cnc5[nH]ccc5c4)c3)CC2)C1` (stereo partly drawn) [Compound 377, 4-(4-{[2-(4-chlorophenyl)-5-methoxy-5-methylcyclohex-1-en-1-yl]methyl}piperazin-1-yl)-N-[(4-{[(trans-4-hydroxy-4-methylcyclohexyl)methyl]amino}-3-nitrophenyl)sulfonyl]-2-(1H-pyrrolo[2,3-b]pyridin-5-yloxy)benzamide]: the Ki is below 0.001 nM.

As a reminder, the Ki is a dissociation constant, usually derived from enzyme kinetics or from competition with a known ligand. Low readings indicate a stronger hold on the target, high ones a looser hold on the target.
